Test results published in PMC11947619, “Molecular mechanism of Mad2 conformational conversion promoted by the Mad2‐interaction motif of Cdc20” (Protein Science : A Publication of the Protein Society, 2025).
Residues, ends and D or L forms follow the SMILES beside them.

Target: T1, O‐Mad2^WT (Homo sapiens, UniProt Q13257)
T1 construct: MD simulations on the full‐length O‐Mad2:C‐Mad2:Mad1^MIM complex; His6-DoubleStrep-TEV (N); made in house
Experiment: NMR: conversion of monomeric wild-type O-Mad2^WT
Format: biochemical
Conditions: O-Mad2^WT 300 μM, two-fold molar excess peptide, HSQC, 25°C
Experimental: FIGURE 6 O‐Mad2 retains its dynamic and structural properties in the O‐Mad2:C‐Mad2 dimer. (a, c) HSQC spectra of 300 μM wild‐type O‐Mad2^WT (a, light blue) and O‐Mad2^WT:(C‐Mad2^WT:Mad1^MIM) (c, blue). The schematics show the conformation of Mad2 as indicated by the tryptophan side‐chain resonances and their oligomeric states as determined by SEC‐MALS (insets). The SEC peaks are labeled with their molecular masses (kDa), where the theoretical molecular masses for monomeric and dimeric Mad2 are 23.5 and 47.0 kDa, respectively. For the dimeric samples, only one of the monomers was isotopically labeled and observable by NMR. Distinct chemical shift differences were also observed for Gly50 in O‐Mad2 and C‐Mad2, and its resonances are marked in the spectra. Cdc20^MIM‐123‐152 was added at two‐fold molar excess to O‐Mad2^WT (a), and O‐Mad2^WT:(C‐Mad2^WT:Mad1^MIM) (c). (b, d) This generated C‐Mad2^WT‐Cdc20^MIM (b, brown), and (C‐Mad2^WT:Cdc20^MIM):(C‐Mad2^WT:Mad1^MIM) (d, yellow), respectively. Their spectra are overlaid with that of C‐Mad2^L13A/R133A:Cdc20^MIM (red) for comparison. (e) Cα RMSF were determined from MD simulations at 300 K for monomeric O‐Mad2 (blue line) and O‐Mad2 in a O‐Mad2:C‐Mad2:Mad1^MIM dimer (brown dotted line). […]
For wild‐type Mad2, the protein was expressed as O‐Mad2^WT using the conditions described above. […]

T1 sequence (Q13257 whole entry): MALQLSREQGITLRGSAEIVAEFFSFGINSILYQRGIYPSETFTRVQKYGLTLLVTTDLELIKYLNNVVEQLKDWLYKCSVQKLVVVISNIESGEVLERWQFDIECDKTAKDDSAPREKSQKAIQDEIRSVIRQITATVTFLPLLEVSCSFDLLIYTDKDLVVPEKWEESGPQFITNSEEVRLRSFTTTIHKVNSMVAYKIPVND

Q: Which “conversion of O-Mad2^WT, in words” value does the source give for `CC[C@H](C)[C@H](NC(=O)[C@H](CCCCN)NC(=O)[C@H](C)NC(=O)[C@H](CCC(=O)O)NC(=O)[C@H](CCC(=O)O)NC(=O)[C@@H](NC(=O)[C@H](CC(=O)O)NC(=O)[C@@H](N)Cc1ccccc1)C(C)C)C(=O)N[C@@H](CC(C)C)C(=O)N[C@@H](CCCNC(=N)N)C(=O)N[C@@H](CC(C)C)C(=O)N[C@@H](CO)C(=O)NCC(=O)N[C@@H](CCCCN)C(=O)N1CCC[C@H]1C(=O)N[C@@H](CCC(N)=O)C(=O)N[C@@H](CC(N)=O)C(=O)N[C@@H](C)C(=O)N1CCC[C@H]1C(=O)N[C@@H](CCC(=O)O)C(=O)NCC(=O)N[C@@H](Cc1ccc(O)cc1)C(=O)N[C@@H](CCC(N)=O)C(=O)N[C@@H](CC(N)=O)C(=O)N[C@@H](CCCNC(=N)N)C(=O)N[C@@H](CC(C)C)C(=O)N[C@@H](CCCCN)C(=O)N[C@H](C(=O)N[C@@H](CC(C)C)C(=O)N[C@@H](Cc1ccc(O)cc1)C(=O)O)C(C)C` [Cdc20^MIM‐123‐152] (H-FDVEEAKILRLSGKPQNAPEGYQNRLKVLY-OH; N-terminus and C-terminus assumed) here?
A: converted to C‐Mad2 upon binding Cdc20^MIM
